Measured values: patent US9029559B2, “Substituted 3-heteroaroylamino-propionic acid derivatives and their use as pharmaceuticals” (SANOFI, priority 2011, dated 2015)

Biological target: Recombinant human cathepsin A (Homo sapiens (Human), UniProt P10619)
Assay: Cathepsin A inhibitory activity (cleavage of Bodipy FL-labeled bradykinin, microfluidic capillary electrophoresis)
Assay type: biochemical
Settings: read-out: Activity (Cathepsin A inhibitory activity, IC50)

Recombinant human cathepsin A, sequence (P10619 29-326): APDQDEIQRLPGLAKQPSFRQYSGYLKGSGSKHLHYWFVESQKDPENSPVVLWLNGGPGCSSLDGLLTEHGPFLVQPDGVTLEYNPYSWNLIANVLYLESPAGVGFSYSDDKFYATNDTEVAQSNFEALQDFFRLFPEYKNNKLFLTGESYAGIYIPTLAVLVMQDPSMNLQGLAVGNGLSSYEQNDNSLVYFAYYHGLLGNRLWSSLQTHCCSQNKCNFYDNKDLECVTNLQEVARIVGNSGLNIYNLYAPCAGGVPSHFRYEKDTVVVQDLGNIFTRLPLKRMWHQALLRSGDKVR
Recombinant human cathepsin A, sequence (P10619 327-480): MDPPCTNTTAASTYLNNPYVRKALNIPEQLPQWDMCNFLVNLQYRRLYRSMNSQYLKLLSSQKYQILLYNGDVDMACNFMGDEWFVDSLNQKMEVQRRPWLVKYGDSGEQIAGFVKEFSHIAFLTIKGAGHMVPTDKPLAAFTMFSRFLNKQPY

IC50 [µM]	Compound
1.46	COc1ccc(C(=O)NC(CC(=O)O)c2ccccc2Cl)nc1Br (stereo not drawn) [compound 598, 3-[(6-Bromo-5-methoxy-pyridine-2-carbonyl)-amino]-3-(2-chloro-phenyl)-propionic acid]
2.83	COc1ccc([C@H](CC(=O)O)NC(=O)c2cccc(-c3ccccc3Cl)n2)cc1 [compound 599]
3.85	O=C(O)CC(NC(=O)c1cc(Sc2ncccn2)ccn1)c1ccccc1Cl (stereo not drawn) [compound 601]
2.28	O=C(O)C[C@H](NC(=O)c1cccc(-c2ccccc2F)n1)c1ccc(Cl)cc1Cl [compound 605]
3.93	O=C(O)C[C@H](NC(=O)c1cccc(-c2ccccc2F)n1)c1cccc(Cl)c1Cl [compound 606]
6.27	O=C(O)C[C@H](NC(=O)c1cccc(-c2ccccc2F)n1)c1ccc(C(F)(F)F)cc1 [compound 608]
2.32	O=C(O)C[C@H](NC(=O)c1cccc(-c2ccccc2Cl)n1)c1cccc(Cl)c1Cl [compound 610]
1.66	O=C(O)C[C@H](NC(=O)c1cccc(-c2ccccc2Cl)n1)c1ccccc1C(F)(F)F [compound 612]
3.58	COc1cc(OC)nc(Oc2cccnc2C(=O)NC(CC(=O)O)c2ccccc2Cl)n1 (stereo not drawn) [compound 615]
10.4	O=C(O)CC(NC(=O)c1cc(-c2ccccc2)nc(N2CCCCC2)n1)c1ccccc1Cl (stereo not drawn) [compound 616, 3-(2-Chloro-phenyl)-3-[(6-phenyl-2-piperidin-1-yl-pyrimidine-4-carbonyl)-amino]-propionic acid]

Same assay, conditions: read-out: Activity (IC50, cathepsin A inhibition)

Compound	IC50 [µM]
COc1ccc(C(=O)N[C@@H](CC(=O)O)c2ccccc2Cl)nc1-c1cc(C)ccc1Cl [compound 492]	1.05
COc1ccc(C(=O)N[C@@H](CC(=O)O)c2ccccc2Cl)nc1-c1ccc(C#N)cc1F [compound 494]	11.4
COc1ccc(C(=O)N[C@@H](CC(=O)O)c2ccccc2Cl)nc1-c1cccc(C2(O)COC2)c1 [compound 495]	3.89
COc1ccc(C(=O)N[C@@H](CC(=O)O)c2ccccc2Cl)nc1-c1cccc(C(C)(C)O)c1 [compound 496]	2.86
O=C(O)CC(NC(=O)c1nc(Cl)ccc1Cl)c1ccc(-c2ccccc2)cc1 (stereo not drawn) [compound 498]	8.55
Cc1ccccc1[C@H](CC(=O)O)NC(=O)c1nc(Cl)ccc1Cl [compound 506]	8.48
Cc1ccccc1[C@H](CC(=O)O)NC(=O)c1cncc(Cl)n1 [compound 514]	1.21
O=C(O)CC(NC(=O)c1cnccn1)c1ccccc1Cl (stereo not drawn) [compound 521]	12.8
O=C(O)CC(NC(=O)c1ccncc1)c1ccccc1Cl (stereo not drawn) [compound 524]	10.2
Cc1cccc(C(=O)NC(CC(=O)O)c2ccccc2Cl)n1 (stereo not drawn) [compound 527]	4.96
Cc1ccnc(C(=O)NC(CC(=O)O)c2ccccc2Cl)c1 (stereo not drawn) [compound 528]	5.81
O=C(O)CC(NC(=O)c1cc(O)ccn1)c1ccccc1Cl (stereo not drawn) [compound 529]	5.12
O=C(O)CC(NC(=O)c1ncccc1F)c1ccccc1Cl (stereo not drawn) [compound 530]	5.27
O=C(O)CC(NC(=O)c1cccc(F)n1)c1ccccc1Cl (stereo not drawn) [compound 531]	7.65
CCc1ccnc(C(=O)NC(CC(=O)O)c2ccccc2Cl)c1 (stereo not drawn) [compound 532]	10.2
Cc1cc(C)nc(C(=O)NC(CC(=O)O)c2ccccc2Cl)c1 (stereo not drawn) [compound 533]	6.29
COc1cc(C(=O)NC(CC(=O)O)c2ccccc2Cl)ccn1 (stereo not drawn) [compound 536]	5.08
O=C(O)CC(NC(=O)c1cccc(Cl)n1)c1ccccc1Cl (stereo not drawn) [compound 540]	1.6
O=C(O)CC(NC(=O)c1ccc2nc[nH]c2n1)c1ccccc1Cl (stereo not drawn) [compound 542]	10.8
O=C(O)CC(NC(=O)c1ccc2cnccc2n1)c1ccccc1Cl (stereo not drawn) [compound 544]	11.1
COc1ccc(C(=O)NC(CC(=O)O)c2ccccc2Cl)nc1Cl (stereo not drawn) [compound 550]	1.08
O=C(O)CC(NC(=O)c1ccnc(N2CCCC2)c1)c1ccccc1Cl (stereo not drawn) [compound 553]	11.1
CC(C)Cc1cc(C(=O)NC(CC(=O)O)c2ccccc2Cl)nc(N)n1 (stereo not drawn) [compound 557]	14
Cc1ccc([C@H](CC(=O)O)NC(=O)c2cccc(-c3ccccc3F)n2)cc1 [compound 559]	4.38
Cc1cccc([C@H](CC(=O)O)NC(=O)c2cccc(-c3ccccc3F)n2)c1 [compound 560]	12.9
O=C(O)C[C@@H](Cc1ccccc1)NC(=O)c1cccc(-c2ccccc2F)n1 [compound 561]	5.33

More lines, now with the values ahead:

IC50 [µM]	Compound
2.1	O=C(O)CC(NC(=O)c1cccc(Br)n1)c1ccccc1Cl (stereo not drawn) [compound 562]
3.09	O=C(O)CC(NC(=O)c1cccc(-c2ccccc2)n1)c1ccccc1Cl (stereo not drawn) [compound 563]
4.07	O=C(O)CC(NC(=O)c1cc(-c2ccccc2)ccn1)c1ccccc1Cl (stereo not drawn) [compound 565]
11.7	O=C(O)CC(NC(=O)c1cncc(-c2ccccc2)c1)c1ccccc1Cl (stereo not drawn) [compound 566]
2.18	O=C(O)C[C@H](NC(=O)c1cccc(-c2ccccc2Cl)n1)c1ccccc1 [compound 567]
7.54	COc1ccc(C(=O)N[C@@H](CC(=O)O)c2ccccc2C)nc1-c1cccnc1 [compound 578]
15.6	Cc1ccc([C@H](CC(=O)O)NC(=O)c2cccc(-c3ccccc3Cl)n2)cc1 [compound 580]
5.76	C[C@@](CC(=O)O)(NC(=O)c1cccc(-c2ccccc2Cl)n1)c1ccccc1 [compound 581]
8.67	O=C(O)CC(NC(=O)c1ccc(Oc2ccccc2)nc1)c1ccccc1Cl (stereo not drawn) [compound 585]
7.35	O=C(O)C[C@H](NC(=O)c1cccc(-c2ccccc2Cl)n1)c1cccc(F)c1 [compound 587]
4.89	O=C(O)CC(NC(=O)c1cccc(-c2ccccc2F)n1)c1ccccc1Cl (stereo not drawn) [compound 589]
1.42	COc1ccc(-c2cccc(C(=O)NC(CC(=O)O)c3ccccc3Cl)n2)cc1 (stereo not drawn) [compound 595]
5.77	COc1cccc(-c2cccc(C(=O)NC(CC(=O)O)c3ccccc3Cl)n2)c1 (stereo not drawn) [compound 596]
1.45	COc1ccccc1-c1cccc(C(=O)NC(CC(=O)O)c2ccccc2Cl)n1 (stereo not drawn) [compound 597]

Same assay, conditions: read-out: Activity (IC50, cathepsin A inhibitory activity)

IC50 [µM]	Compound
> 10	COc1ccc(C(C)(C)C)cc1-c1nc(C(=O)N[C@@H](CC(=O)O)c2ccccc2Cl)ccc1OC [compound 475]
4.37	COc1ccc(C(=O)N[C@@H](CC(=O)O)c2ccccc2Cl)nc1-c1ccc(Cl)c(F)c1 [compound 480]
8.77	COc1ccc(C(=O)N[C@@H](CC(=O)O)c2ccccc2Cl)nc1-c1cc(C)cnc1Cl [compound 481]
9.49	COc1ccc(C(=O)N[C@@H](CC(=O)O)c2ccccc2Cl)nc1-c1cc(C)cc(Cl)c1 [compound 483]
6.69	COc1ccc(C(=O)N[C@@H](CC(=O)O)c2ccccc2Cl)nc1-c1cccc(-c2nnc(C)o2)c1 [compound 484]
4.95	COc1ccc(C(=O)N[C@@H](CC(=O)O)c2ccccc2Cl)nc1-c1c(C)nn(C)c1C [compound 486]
9.08	COc1ccc(C(=O)N[C@@H](CC(=O)O)c2ccccc2Cl)nc1-c1ccnc(N2CCOCC2)c1 [compound 490]
